Patent publication US11166462B2, “Fungicidal compound, fungicide composition and preparation and use thereof” (Zhejiang Udragon Bioscience Co., Ltd., priority 2016, dated 2021)
Converted amounts (≈) assume the structure as drawn.

Experiments:
Rhizoctonia solani = assay: Fungus cake inoculation on pot-cultured seedlings (rice sheath blight); assay type: in vivo; settings: for control effect against rice sheath blight (in words): at 200 mg/L concentration; for Control effect (%) Rice sheath blight: concentration 200 mg/L, 5% EC diluted with water containing 1% Tween 80
Experimental: Test Object: Pseudoperonospora cubensis, Rhizoctonia Solani Test design: the compound in a structure expressed by formula (I) (Y14078) and the compound in a structure expressed by formula (II) (Y14079) are prepared with DMF into 5% emulsifiable concentrate (hereafter abbreviated as EC) respectively, and then the EC is diluted with water containing 1% Tween 80 to prepare 200 mg/L formulation. Each process is repeated for 4 times. Test method for Rhizoctonia solani: two pot-cultured seedlings in the same growth state in the true leaf stage are selected, sprayed with the formulation and then dried, and fungus cakes are attached to the leaves with the hypha side facing the leave. The seedlings are kept in a dark environment at 22-26° C. moisturizing for 24 h, and then the natural lighting is recovered, and the seedlings are cultured for about 4 days. After the disease is developed extensively in the control group, the diameter of the disease speckle at each inoculated site is measured with callipers, and the control effect is calculated. 2.

[1] = tested on: Pseudoperonospora cubensis; assay: Spore suspension spray inoculation method on pot-cultured cucumber seedlings (cucumber downy mildew); assay type: in vivo; settings: for EC50: Pseudoperonospora cubensis, against cucumber downy mildew, from regression of control effect at 6.25-100 mg/L; for control effect against cucumber downy mildew (in words): at 200 mg/L concentration; for Control effect (%) Cucumber downy mildew: concentration 200 mg/L; for Control effect (%) Cucumber downy mildew / Control effect (%): 5% EC diluted with water containing 1% Tween 80; for Control effect (%): cucumber downy mildew, investigated after 5 d
Experimental: Test Object: Pseudoperonospora cubensis Test design: the compound in a structure expressed by formula (I) (Y14078), the compound in a structure expressed by formula (II) (Y14079), and a reference chemical amisulbrom are prepared with DMF into 5% emulsifiable concentrate (hereafter abbreviated as EC) respectively, and then the EC is diluted with water containing 1% Tween 80 to 5 concentration gradients, i.e., 100, 50, 25, 12.5, and 6.25 mg/L. Each process is repeated for 4 times. Test method: the biological activity of the formulation is measured with a spore suspension spray inoculation method. Pot-cultured cucumber seedlings in the same growth state in the 1-leaf and 1-heart stage (with the growing point removed) are selected, sprayed with the formulation, and dried naturally. After 24 h, spores on the back side of the leaf infected by the disease is picked with a writing brush dipped with distilled water, and are prepared into spore suspension (2-3×10^5 spores/ml), the spore suspension is sprayed uniformly with an inoculating sprayer (at 0.1 MPa pressure) to the leaves of cucumbers, and then the inoculated cucumber seedlings are moved into a climatic chamber (relative humidity: 100%, temperature: 20° C., light-dark cycle time: 14 h/10 h) and cultured. After 24 h, the relative humidity is maintained at about 90% for induction; after 5 d, grading and investigation are carried out on the basis of the disease situation of the blank control group, and the control effect (%) is calculated according to the disease severity index. Investigation Method and Grading Criteria: Level 0: free from disease; Level 1: disease speckle area accounts for 5% or less of the total area of the leaf; Level 3: disease speckle area accounts for 6%-10% of the total area of the leaf; Level 5: disease speckle area accounts for 11%-25% of the total area of the leaf; Level 7: disease speckle area accounts for 26%-50% of the total area of the leaf; Level 9: disease speckle area accounts for 50% or more of the total area of the leaf. Effect Calculation: Disease index=Σ(quantity of leaves at all levels×relative level value)×100/(total quantity of leaves×9); Control effect (%)=(disease index of the control group−disease index of treated group)×100/disease index of control group Test design: the compound in a structure expressed by formula (I) (Y14078) and the compound in a structure expressed by formula (II) (Y14079) are prepared with DMF into 5% emulsifiable concentrate (hereafter abbreviated as EC) respectively, and then the EC is diluted with water containing 1% Tween 80 to prepare 200 mg/L formulation. Each process is repeated for 4 times. Test method for Pseudoperonospora cubensis: the biological activity of the formulation is measured with a spore suspension spray inoculation method. Pot-cultured cucumber seedlings in the same growth state in the 1-leaf and 1-heart stage (with the growing point removed) are selected, sprayed with the formulation, and dried naturally. After 24 h, spores on the back side of the leaf infected by the disease is picked with a writing brush dipped with distilled water, and are prepared into spore suspension (2-3×10^5 spores/[…]), the spore suspension is sprayed uniformly with an inoculating sprayer (at 0.1 MPa pressure) to the leaves of cucumbers, and then the inoculated cucumber seedlings are moved into a climatic chamber (relative humidity: 100%, temperature: 20° C., light-dark cycle time: 14 h/10 h) and cultured. After 24 h, the relative humidity is maintained at about 90% for induction; after 5 d, grading and investigation are carried out on the basis of the disease situation of the blank control group, and the control effect (%) is calculated according to the disease severity index. 2. […]

melting point [°C]	Structure (SMILES)	control effect against rice sheath blight (in words) (Rhizoctonia solani)	Control effect (%) Rice sheath blight (Rhizoctonia solani) [%]	EC50 [1] [µg/mL]	control effect against cucumber downy mildew (in words) [1]	Control effect (%) Cucumber downy mildew [1] [%]	Control effect (%) ([1]; concentration 6.25 mg/L)	Control effect (%) ([1]; concentration 12.5 mg/L)	Control effect (%) ([1]; concentration 25 mg/L)	Control effect (%) ([1]; concentration 50 mg/L)	Control effect (%) ([1]; concentration 100 mg/L)
–	CN(C)S(=O)(=O)n1cnc(S(=O)(=O)Oc2ccc3ccccc3c2Br)n1 [Compound Y14078]	good control effect	52.5	12.2 (≈ 26.5 µM)	especially remarkable	100	35.56	49.97	67.27	76.24	87.58
141 to 143	CN(C)S(=O)(=O)n1cnc(S(=O)(=O)Oc2ccc(Oc3ccccc3)cc2)n1 [Compound Y14079]	good control effect	67.5	13.6 (≈ 32 µM)	especially remarkable	100	31.21	47.79	59.89	85.56	94.63
